The values that follow come from US20120027741A1 (priority 2009, published 2012).

Holding throughout (assay type): in vivo
One assay relates to Pythium ultimum. The assay can be described thus: Pythium test (cotton)/seed treatment. Particulars: emerged seedlings after 7 days. As to the method:
Pythium Test (Cotton)/Seed Treatment
The test is performed under greenhouse conditions.
Cotton seeds, treated with the active compound or compound combinations, solved in N-methyl-2-pyrrolidon and diluted with water to the desired dosages, were sown in 6*6 cm pots containing 4 cm of a 1:1 mix of steamed field soil and sand.
Perlite was incubated with mycelium fragments of Pythium ultimum. 1 ml of infected perlite was scattered between the treated cotton seeds. Seeds were then covered by light expanded clay aggregate. Pots were incubated in the greenhouse 7 days at 20° C. and 80% relative humidity.
Assessment consisted of counting of emerged seedlings. 0% means an efficacy which to corresponds to that of the control, while an efficacy of 100% means that all seedlings have emerged.

Another assay deals with Phytophthora infestans. Nature of the assay: whole plant or invertebrate. The settings on record: tomatoes, 3 days after inoculation; for pest or weed control at 0.125 ppm: 0.125 ppm a.i.; for pest or weed control at 0.5 ppm: 0.5 ppm a.i.
Another assay has as its system Botrytis cinerea. Nature of the assay: Botrytis test (beans)/protective. The settings on record: 48 h, 2 days after inoculation, read-out: Efficacy in % found. As to the method:
Botrytis Test (Beans)/Protective
(§1) Solvent: • 24,5 parts by weight of acetone • 24,5 parts by weight of dimethylacetamide
(§2) Emulsifier: • 1 part by weight of alkylaryl polyglycol ether
(§3) To produce a suitable preparation of active compound, 1 part by weight of active compound is mixed with the stated amounts of solvent and emulsifier, and the concentrate is diluted with water to the desired concentration.
To test for protective activity, young plants are sprayed with the preparation of active compound. After the spray coating has dried on, 2 small pieces of agar covered with growth of Botrytis cinerea are placed on each leaf. The inoculated plants are placed in a darkened chamber at 20° C. and a relative atmospheric humidity of 100%.
2 days after the inoculation, the size of the lesions on the leaves is evaluated. 0% means an efficacy which corresponds to that of the control, while an efficacy of 100% means that no disease is observed.

The next assay has as its system Sphaerotheca fuliginea. Nature of the assay: Sphaerotheca test (cucumbers)/protective. The settings on record: Podosphaera fuliginea, 168 h, 7 days after inoculation, read-out: Efficacy in % found. As to the method: Sphaerotheca Test (Cucumbers)/Protective
as §1, §2, §3
To test for protect activity, young plants are sprayed with the preparation of active compound at the stated rate of application. After the spray coating has dried on, the plants are inoculated with to an aqueous spore suspension of Sphaerotheca fuliginea. The plants are then placed in a greenhouse at approximately 23° C. and a relative atmospheric humidity of approximately 70%.
The test is evaluated 7 days after the inoculation. 0% means an efficacy which corresponds to that of the control, while an efficacy of 100% means that no disease is observed.

Where [1] appears, read: Phytophthora infestans, 72 h, read-out: Efficacy in % found, Table 3.

Where two headings read alike, the source gives them in different places.

For `C#CCCOC(=O)Nc1cccc(CO/N=C(/c2ccccc2)c2nnnn2C)n1` [Ex. A, but-3-yn-1-yl {6-[({[(Z)-(1-methyl-1H-tetrazol-5-yl)(phenyl)methylene]amino}oxy)methyl]pyridin-2-yl}carbamate], the “Efficacy in % found” value with Pythium ultimum (Table 11, 0.1 g a.i./dt) is given as 30%. Besides, the pest or weed control at 0.1 ppm with Phytophthora infestans (Phytophthora infestans, 72 h, read-out: Efficacy in % found, Table 1, 0.1 ppm a.i.) is 7%. Moreover, the pest or weed control at 0.2 ppm in the assay with Phytophthora infestans (Phytophthora infestans, 72 h, read-out: Efficacy in % found, Table 1, 0.2 ppm a.i.) was 23%. Further, the pest or weed control at 0.4 ppm in the assay with Phytophthora infestans (Phytophthora infestans, 72 h, read-out: Efficacy in % found, Table 1, 0.4 ppm a.i.) came to 16%; in the assay on Phytophthora infestans (Phytophthora infestans, 72 h, read-out: Efficacy in % found, Table 4, 0.4 ppm a.i.) it was 55%. Besides, the pest or weed control at 0.125 ppm with Phytophthora infestans (Phytophthora infestans, 72 h, read-out: Efficacy in % found, Table 2) stood at 20%; with Phytophthora infestans (setting [1]) it was 35%; in the assay on Phytophthora infestans (Phytophthora infestans, 72 h, read-out: Efficacy in % found, Table 6), 58%. In addition, the pest or weed control at 0.5 ppm was determined as 74% in the assay on Phytophthora infestans (setting [1]) and 70% in the assay on Phytophthora infestans (Phytophthora infestans, 72 h, read-out: Efficacy in % found, Table 5). Moreover, the pest or weed control at 25 ppm in the assay on Botrytis cinerea (Table 9, 25 ppm a.i.) was found to be 15%; with Sphaerotheca fuliginea (Table 7, 25 ppm a.i.), 13%. Moreover, the pest or weed control at 50 ppm is 40% in the assay on Botrytis cinerea (Table 9, 50 ppm a.i.); 0% with Botrytis cinerea (Table 10, 50 ppm a.i.); 13% in the assay on Sphaerotheca fuliginea (Table 7, 50 ppm a.i.). The pest or weed control at 100 ppm in the assay with Sphaerotheca fuliginea (Table 7, 100 ppm a.i.) worked out at 13%; in the assay on Sphaerotheca fuliginea (Table 8, 100 ppm a.i.), 0%.
Regarding `C#CCOc1ccc(CCNC(=O)C(OCC#C)c2ccc(Cl)cc2)cc1OC` (stereo not shown) [mandipropamid], the “Efficacy in % found” value came out at 0% in the assay with Pythium ultimum (Table 11, 10 g a.i./dt) and 84% in the assay with Phytophthora infestans (Table 1, 0.4 ppm a.i.).
